# Results: patent US20110039825A1, “LIGANDS OF ALPHA-ADRENOCEPTORS, DOPAMINE, HISTAMINE, IMIDAZOLINE AND SEROTONIN RECEPTORS AND THEIR USE” (Alla Chem, LLC, priority 2007, published 2011)
# Counter-ions that a name gives are not always drawn.
# Assays:
# adrenergic receptor α1A = molecular target: T1, adrenergic receptor α1A (Rattus norvegicus, UniProt P43140); test: radioligand binding to adrenergic receptor α1A ([3H] Prazosin); details: 10 μM ligand
# T1 construct: membrane species from rat submaxillary glands (rat of Wistar breed) are prepared; from tissue; host or cells: rat (Wistar) submaxillary gland membranes
# T1 sequence (P43140 1-466): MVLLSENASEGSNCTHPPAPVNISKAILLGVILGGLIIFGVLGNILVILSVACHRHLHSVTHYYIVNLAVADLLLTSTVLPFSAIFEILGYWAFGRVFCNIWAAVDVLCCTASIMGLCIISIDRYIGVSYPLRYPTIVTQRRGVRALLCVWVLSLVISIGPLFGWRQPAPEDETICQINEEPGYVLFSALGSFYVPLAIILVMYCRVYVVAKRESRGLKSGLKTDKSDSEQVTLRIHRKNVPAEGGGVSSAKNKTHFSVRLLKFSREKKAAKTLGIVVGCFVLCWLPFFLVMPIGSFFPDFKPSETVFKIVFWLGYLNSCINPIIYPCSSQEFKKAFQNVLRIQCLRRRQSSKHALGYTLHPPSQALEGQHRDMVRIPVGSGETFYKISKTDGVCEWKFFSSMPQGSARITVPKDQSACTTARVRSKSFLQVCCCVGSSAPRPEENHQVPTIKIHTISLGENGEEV
# Experimental: Determination of investigated compounds' binding to α1A receptor was carried out according to the method described in [Michel A D, Loury D N and Whiting R l. Identification of a single α1A-adrenoceptor corresponding to the α1A-subtype in rat submaxillary gland. Br J. Pharmacol. 98:883-889, 1989]. […] Prazosin is used as positive control.
# adrenergic receptor α1B = molecular target: T2, adrenergic receptor α1B (Rattus norvegicus, UniProt P15823); test: radioligand binding to adrenergic receptor α1B ([3H] Prazosin); details: 10 μM ligand
# T2 construct: membrane species from rat liver (rat of Wistar breed) are prepared; from tissue; host or cells: rat (Wistar) liver membranes
# T2 sequence (P15823 1-515): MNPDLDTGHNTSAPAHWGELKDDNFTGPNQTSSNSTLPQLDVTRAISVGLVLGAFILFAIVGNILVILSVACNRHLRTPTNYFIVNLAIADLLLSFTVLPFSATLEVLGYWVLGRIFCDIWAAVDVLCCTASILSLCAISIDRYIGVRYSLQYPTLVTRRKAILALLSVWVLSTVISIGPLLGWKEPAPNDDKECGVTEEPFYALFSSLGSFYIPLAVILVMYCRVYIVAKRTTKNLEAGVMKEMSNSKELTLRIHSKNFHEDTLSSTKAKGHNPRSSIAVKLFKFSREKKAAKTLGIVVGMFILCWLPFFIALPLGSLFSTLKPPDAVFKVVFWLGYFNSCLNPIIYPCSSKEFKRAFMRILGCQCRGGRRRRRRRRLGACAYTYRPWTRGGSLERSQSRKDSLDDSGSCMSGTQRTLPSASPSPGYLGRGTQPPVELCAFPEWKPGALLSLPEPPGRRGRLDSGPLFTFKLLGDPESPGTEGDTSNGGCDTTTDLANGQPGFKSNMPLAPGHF
# Description: Species heterogeneity of hepatic α1A-, α1B-, and α1C-subtypes. Biochem Biophys Res Commun. 186:760-7676 1992]. […] Prazosin is used as positive control.
# human α1D receptor = molecular target: T3, human α1D receptor (Homo sapiens, UniProt P25100); test: radioligand binding to adrenergic receptor α1D ([3H] Prazosin); details: 10 μM ligand
# T3 construct: expressed in transfected cells; host or cells: HEK-293
# T3 sequence (P25100 1-572): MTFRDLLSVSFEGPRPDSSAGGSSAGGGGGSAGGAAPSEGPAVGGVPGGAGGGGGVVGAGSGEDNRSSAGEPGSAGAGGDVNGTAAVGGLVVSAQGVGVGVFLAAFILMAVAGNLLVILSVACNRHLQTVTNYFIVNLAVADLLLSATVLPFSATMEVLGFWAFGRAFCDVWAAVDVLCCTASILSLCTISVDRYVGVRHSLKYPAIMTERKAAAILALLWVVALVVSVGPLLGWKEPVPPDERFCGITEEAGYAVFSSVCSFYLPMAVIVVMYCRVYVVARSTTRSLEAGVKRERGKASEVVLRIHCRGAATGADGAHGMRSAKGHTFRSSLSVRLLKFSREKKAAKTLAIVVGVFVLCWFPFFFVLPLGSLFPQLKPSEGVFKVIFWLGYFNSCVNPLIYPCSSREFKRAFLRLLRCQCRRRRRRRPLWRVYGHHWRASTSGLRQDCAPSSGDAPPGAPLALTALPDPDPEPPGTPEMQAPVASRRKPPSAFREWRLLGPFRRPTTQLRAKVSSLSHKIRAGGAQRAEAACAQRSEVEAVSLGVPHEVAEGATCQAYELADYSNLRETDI
# Description: 6-C. […] For this purpose sDNA of human α1D receptor is expressed in HEK-293 cells, as it was described in [T L Theroux, T A Esbenshade, R D Peavy and K P Minneman. Coupling efficiencies of human alpha 1-adrenergic receptor subtypes: titration of receptor density and responsiveness with inducible and repressible expression vectors. Mol. Pharmacol.; 50: 1376-1387, 1996]. […] Prazosin is used as positive control.
# human α2A receptor = molecular target: T4, human α2A receptor (Homo sapiens, UniProt P08913); test: radioligand binding to adrenergic receptor α2A ([3H] MK-912); details: 10 μM ligand
# T4 construct: expressed in transfected cells; host or cells: Sf9
# T4 sequence (P08913 1-465): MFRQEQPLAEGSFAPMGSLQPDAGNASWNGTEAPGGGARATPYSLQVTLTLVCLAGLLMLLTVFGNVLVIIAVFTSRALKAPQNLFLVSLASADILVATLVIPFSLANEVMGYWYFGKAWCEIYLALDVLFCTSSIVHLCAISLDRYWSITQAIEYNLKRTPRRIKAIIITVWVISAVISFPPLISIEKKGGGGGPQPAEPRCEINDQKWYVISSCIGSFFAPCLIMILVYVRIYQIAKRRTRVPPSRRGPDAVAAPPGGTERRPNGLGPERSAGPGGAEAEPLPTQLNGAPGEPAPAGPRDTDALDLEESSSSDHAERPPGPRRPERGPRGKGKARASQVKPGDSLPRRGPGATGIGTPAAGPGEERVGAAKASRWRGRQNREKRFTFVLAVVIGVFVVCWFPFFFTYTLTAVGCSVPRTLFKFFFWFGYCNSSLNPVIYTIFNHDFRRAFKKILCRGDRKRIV
# Description: J Pharmacol ExpTher. […] Yohimbine is used as positive control.
# recombinant human 5-HT1A = molecular target: T5, recombinant human 5-HT1A (Homo sapiens, UniProt P08908); test: radioligand binding to serotonin receptor 5-HT1A ([3H] 8-OH-DPAT); details: for inhibition at 1 µM: ligand concentration 1 μM
# T5 construct: expressed in transfected cells; host or cells: CHO
# T5 sequence (P08908 1-422): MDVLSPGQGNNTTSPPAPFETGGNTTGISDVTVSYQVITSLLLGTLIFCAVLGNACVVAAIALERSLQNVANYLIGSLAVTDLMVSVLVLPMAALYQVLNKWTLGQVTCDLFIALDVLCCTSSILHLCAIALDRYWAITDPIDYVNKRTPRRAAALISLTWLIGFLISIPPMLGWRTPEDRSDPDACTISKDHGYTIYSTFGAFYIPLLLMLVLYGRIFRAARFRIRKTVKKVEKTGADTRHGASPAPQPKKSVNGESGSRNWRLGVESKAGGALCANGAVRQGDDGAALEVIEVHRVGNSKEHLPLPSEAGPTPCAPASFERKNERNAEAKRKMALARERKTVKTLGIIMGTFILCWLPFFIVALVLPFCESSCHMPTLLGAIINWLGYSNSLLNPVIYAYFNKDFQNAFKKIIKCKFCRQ
# Description: J Pharmacol Exp Ther. 306(1): 301-309, 2003]. […] Metergoline is used as positive control.
# imidazoline receptor I2 = test: radioligand binding to imidazoline receptor I2 ([3H] Idazoxan); parameters: species or system rat
# Experimental: Determination of investigated compounds' binding to imidazoline I2 receptor is carried out according to the method described in [Brown C M, MacKinnon A C, McGrath J C, Spedding M and Kilpatrick A T, a2-Adrenoceptor subtypes and imidazoline-like binding in the rat brain. Br J. Pharmacol. 99:803-809, 1990]. […] Idazoxan is used as positive control.
# [1] = molecular target: T6, recombinant human 5-HT2A receptor (Homo sapiens, UniProt P28223); test: radioligand binding to serotonin receptor 5-HT2A ([3H] Ketanserin)
# T6 construct: expressed in transfected cells; host or cells: CHO-K1
# Experimental: 9-C. […] J. Neurochem. […] Ketanserin is used as positive control. […] Values of % I is calculated according to the following equation: […]
# [2] = molecular target: T7, recombinant human 5-HT2B receptor (Homo sapiens, UniProt P41595); test: radioligand binding to serotonin receptor 5-HT2B ([3H] Lysergic acid diethylamide)
# T7 construct: expressed in transfected cells; host or cells: CHO-K1
# human 5-HT7 receptor = molecular target: T8, human 5-HT7 receptor (Homo sapiens, UniProt P34969); test: radioligand binding to serotonin receptor 5-HT7 ([3H] Lysergic acid diethylamide)
# T8 construct: expressed in transfected cells; host or cells: CHO
# Description: For this purpose sDNA of human 5-HT7 receptor is expressed in CHO cells as it was described in [Shen Y, Monsma F J Jr, Metcalf M A, Jose P A, Hamblin M W, and Sibley DR. […] J. Biol. Chem. 1993, 268, 18200-18204]. […] J. Pharmacol. Exp. Ther. 1994, 268:1403-1410]. […] Methiothepin is used as positive control.
# [3] = molecular target: T9, recombinant human 5-HT2C receptor (Homo sapiens, UniProt P28335); test: radioligand binding to serotonin receptor 5-HT2C ([3H] Mesulergine)
# T9 construct: expressed in transfected cells; host or cells: CHO-K1
# T9 sequence (P28335 33-458): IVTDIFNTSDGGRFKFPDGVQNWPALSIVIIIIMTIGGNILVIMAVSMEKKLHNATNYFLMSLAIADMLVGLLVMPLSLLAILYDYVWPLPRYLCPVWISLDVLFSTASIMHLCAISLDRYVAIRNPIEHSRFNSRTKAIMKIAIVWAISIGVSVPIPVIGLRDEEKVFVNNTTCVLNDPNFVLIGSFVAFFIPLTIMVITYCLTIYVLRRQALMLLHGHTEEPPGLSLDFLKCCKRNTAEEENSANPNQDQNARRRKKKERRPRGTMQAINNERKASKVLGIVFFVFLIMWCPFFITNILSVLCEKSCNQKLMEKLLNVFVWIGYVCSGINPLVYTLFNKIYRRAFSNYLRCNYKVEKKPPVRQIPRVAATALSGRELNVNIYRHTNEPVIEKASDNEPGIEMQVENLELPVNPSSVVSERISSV
# Description: J. Neurochem. 69: 1449-1458, 1997]. […] SB242084 is used as positive control.
# [4] = molecular target: T10, recombinant human 5-HT6 receptor (Homo sapiens, UniProt P50406); test: radioligand binding to serotonin receptor 5-HT6 ([3H] Lysergic acid diethylamide); details: for inhibition at 1 µM: ligand concentration 1 μM, read-out: 5-HT6 % inhibition
# T10 construct: expressed in transfected cells; host or cells: HeLa
# Description: Mol. Pharmacol. 43:320-327, 1993]. […] Methiothepin is used as positive control.
# human H1 receptor = molecular target: T11, human H1 receptor (Homo sapiens, UniProt P35367); test: radioligand binding to histamine receptor H1 ([3H] Pyrilamine); details: 10 μM ligand
# T11 construct: expressed in transfected cells; host or cells: CHO-K1
# Description: Biochem Biophys Res Comm. 197(3): 1601-1608, 1993]. […] Biochem Biophys Res Comm. 197(3): 1601-1608, 1993].
# Pyrilamine is used as positive control.
# T6 sequence (P28223 whole entry): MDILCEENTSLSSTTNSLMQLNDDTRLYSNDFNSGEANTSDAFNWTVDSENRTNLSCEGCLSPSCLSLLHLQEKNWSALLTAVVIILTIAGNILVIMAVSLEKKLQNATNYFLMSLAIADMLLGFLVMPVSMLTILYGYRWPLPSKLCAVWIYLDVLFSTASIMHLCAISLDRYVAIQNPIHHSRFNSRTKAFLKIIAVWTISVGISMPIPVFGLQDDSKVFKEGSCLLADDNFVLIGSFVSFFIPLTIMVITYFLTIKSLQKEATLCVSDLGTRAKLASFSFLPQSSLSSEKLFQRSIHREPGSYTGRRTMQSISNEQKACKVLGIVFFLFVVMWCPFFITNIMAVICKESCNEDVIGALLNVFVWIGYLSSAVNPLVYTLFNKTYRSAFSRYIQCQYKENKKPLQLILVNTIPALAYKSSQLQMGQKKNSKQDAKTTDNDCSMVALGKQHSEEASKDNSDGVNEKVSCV
# T8 sequence (P34969 whole entry): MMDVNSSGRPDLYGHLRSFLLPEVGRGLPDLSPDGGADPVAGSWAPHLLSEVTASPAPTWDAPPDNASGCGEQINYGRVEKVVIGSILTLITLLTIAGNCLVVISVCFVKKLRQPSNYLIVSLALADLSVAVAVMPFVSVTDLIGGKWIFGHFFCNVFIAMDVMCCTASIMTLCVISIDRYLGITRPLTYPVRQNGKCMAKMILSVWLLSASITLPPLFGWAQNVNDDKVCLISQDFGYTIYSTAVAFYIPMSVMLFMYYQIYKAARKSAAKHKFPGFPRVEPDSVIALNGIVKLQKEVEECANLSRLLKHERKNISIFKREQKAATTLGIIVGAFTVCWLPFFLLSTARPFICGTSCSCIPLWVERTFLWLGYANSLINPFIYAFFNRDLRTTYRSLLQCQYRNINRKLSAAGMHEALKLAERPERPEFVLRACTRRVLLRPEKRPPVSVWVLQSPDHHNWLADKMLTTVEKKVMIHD
# T7 sequence (P41595 whole entry): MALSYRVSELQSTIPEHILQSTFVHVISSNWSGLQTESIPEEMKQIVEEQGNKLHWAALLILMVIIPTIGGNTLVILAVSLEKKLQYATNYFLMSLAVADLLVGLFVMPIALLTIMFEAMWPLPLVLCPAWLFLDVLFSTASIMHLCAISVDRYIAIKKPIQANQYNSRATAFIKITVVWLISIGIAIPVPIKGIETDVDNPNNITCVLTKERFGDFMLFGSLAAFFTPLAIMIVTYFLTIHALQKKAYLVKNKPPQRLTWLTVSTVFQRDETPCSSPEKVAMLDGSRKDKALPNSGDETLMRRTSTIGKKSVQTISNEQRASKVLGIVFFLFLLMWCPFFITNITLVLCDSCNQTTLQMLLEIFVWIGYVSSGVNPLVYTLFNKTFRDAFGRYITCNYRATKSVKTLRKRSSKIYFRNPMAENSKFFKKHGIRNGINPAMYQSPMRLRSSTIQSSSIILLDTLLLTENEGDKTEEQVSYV
# T10 sequence (P50406 whole entry): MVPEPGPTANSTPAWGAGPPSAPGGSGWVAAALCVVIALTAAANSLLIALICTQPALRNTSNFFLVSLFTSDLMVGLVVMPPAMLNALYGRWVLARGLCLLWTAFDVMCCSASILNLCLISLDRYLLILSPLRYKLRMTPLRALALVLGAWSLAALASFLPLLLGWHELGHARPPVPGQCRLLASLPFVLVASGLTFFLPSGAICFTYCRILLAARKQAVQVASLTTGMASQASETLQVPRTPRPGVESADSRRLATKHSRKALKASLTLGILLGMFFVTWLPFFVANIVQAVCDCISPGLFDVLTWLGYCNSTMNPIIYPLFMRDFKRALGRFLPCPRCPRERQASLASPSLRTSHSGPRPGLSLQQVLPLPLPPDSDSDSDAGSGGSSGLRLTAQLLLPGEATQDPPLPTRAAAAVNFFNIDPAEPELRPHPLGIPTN
# T11 sequence (P35367 whole entry): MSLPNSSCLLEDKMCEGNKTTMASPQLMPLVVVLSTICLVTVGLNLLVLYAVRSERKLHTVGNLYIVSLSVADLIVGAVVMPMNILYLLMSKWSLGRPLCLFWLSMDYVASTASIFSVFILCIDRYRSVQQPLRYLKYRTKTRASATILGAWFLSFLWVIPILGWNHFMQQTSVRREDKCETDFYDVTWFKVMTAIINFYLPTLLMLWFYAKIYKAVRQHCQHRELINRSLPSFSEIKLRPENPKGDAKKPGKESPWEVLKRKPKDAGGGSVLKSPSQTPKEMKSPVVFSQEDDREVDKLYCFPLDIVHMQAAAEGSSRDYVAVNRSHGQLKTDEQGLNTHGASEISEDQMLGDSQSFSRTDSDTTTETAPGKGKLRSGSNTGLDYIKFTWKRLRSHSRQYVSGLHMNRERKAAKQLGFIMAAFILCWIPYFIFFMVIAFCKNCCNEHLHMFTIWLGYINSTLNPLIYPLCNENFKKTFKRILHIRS
smiles,measurement,setting,value
Cc1ccc2c(c1)c1c(n2CCc2cccnc2)CCCN(C)C1.Cl.Cl [1.2.2(3-2)•2HCl],"α-Adrenoceptor α1A, % inhibition",adrenergic receptor α1A,61%
same,"α-Adrenoceptor α1B, % inhibition",adrenergic receptor α1B,75%
same,"α-Adrenoceptor α1D, % inhibition",human α1D receptor,60%
same,"α-Adrenoceptor α2A, % inhibition",human α2A receptor,71%
same,inhibition at 1 µM,recombinant human 5-HT1A,6%
same,imidazoline I2 receptor % inhibition,imidazoline receptor I2; 10 μM ligand,63%
Cc1ccc2c(c1)c1c(n2CCc2ccccc2)CCCN(C)C1 [1.2.2(1-2)•HCl],5-HT1A % inhibition,recombinant human 5-HT1A; 10 μM ligand,20%
same,5-HT2A % inhibition,[1]; 10 μM ligand,89%
same,5-HT2B % inhibition,[2]; 10 μM ligand,84%
same,5-HT7 % inhibition,human 5-HT7 receptor; 10 μM ligand,97%
Cc1ccc2c(c1)c1c(n2CCc2ccccn2)CCCN(C)C1 [1.2.2(2-2)],inhibition at 1 µM,recombinant human 5-HT1A,28%
same,5-HT2B % inhibition,[2]; 10 μM ligand,10%
same,5-HT2C % inhibition,[3]; 10 μM ligand,51%
same,inhibition at 1 µM,[3]; ligand concentration 1 μM,94%
same,inhibition at 1 µM,[4],88%
same,imidazoline I2 receptor % inhibition,imidazoline receptor I2; 10 μM ligand,80%
"CN1CCc2c(c3ccccc3n2Cc2ccccc2)C1.Cl [1.9(1)•HCl, 5-benzyl-2-methyl-2,3,4,5-tetrahydro-1H-pyrido[4,3-b]indole hydrochloride]","α-Adrenoceptor α1A, % inhibition",adrenergic receptor α1A,70%
same,"α-Adrenoceptor α1B, % inhibition",adrenergic receptor α1B,70%
same,"α-Adrenoceptor α2A, % inhibition",human α2A receptor,100%
same,"Histamine receptor H1, % inhibition",human H1 receptor,97%
same,IC50,[1],30.1 nM
same,Ki,[1],8.6 nM
same,nH 5-HT2A,[1],0.765
same,5-HT2A % inhibition,[1]; 0.1 μM ligand,68%
same,5-HT2A % inhibition,[1]; 10 μM ligand,96%
same,nH 5-HT2B,[2],0.836
same,5-HT2B % inhibition,[2]; 0.1 μM ligand,52%
same,5-HT2B % inhibition,[2]; 10 μM ligand,99%
same,IC50,[2]; read-out: IC50 5-HT2B,106 nM
same,Ki,[2]; read-out: Ki 5-HT2B,67.2 nM
same,IC50,[3],33.7 nM
same,Ki,[3],17.7 nM
same,nH 5-HT2C,[3],1.21
same,5-HT2C % inhibition,[3]; 0.1 μM ligand,79%
same,5-HT2C % inhibition,[3]; 10 μM ligand,97%
same,IC50,[4],330 nM
same,Ki,[4],153 nM
same,nH 5-HT6,[4],1.04
same,5-HT6 % inhibition,[4]; 10 μM ligand,71%
same,inhibition at 1 µM,[4],79%
same,5-HT7 % inhibition,human 5-HT7 receptor; 0.3 μM ligand,76%
same,5-HT7 % inhibition,human 5-HT7 receptor; 10 μM ligand,91%
same,imidazoline I2 receptor % inhibition,imidazoline receptor I2; 3 μM ligand,75 (3 μM) %
